Where two headings read alike, the source gives them in different places. Non-standard residues stand in square brackets, D forms with d. Residues, ends and D or L forms follow the SMILES beside them. No end group written: not given here. Phenylbutanoyl = Phenylbutanoyl residue at the C-terminus; Bta = N[C@@H](Cc1csc2ccccc12)C(=O)O; NEtPhe = CCN[C@@H](Cc1ccccc1)C(=O)O; NMeF = CN[C@@H](Cc1ccccc1)C(=O)O; d(hLeu) = CC(C)CC[C@@H](N)C(=O)O; Cha = N[C@@H](CC1CCCCC1)C(=O)O; dCha = N[C@H](CC1CCCCC1)C(=O)O; Orn = NCCC[C@H](N)C(=O)O; dNMeA = CN[C@H](C)C(=O)O

The target in assay [1] is T1, C5aR (Homo sapiens, UniProt P21730).
T1 construct: derived from measurements with isolated membranes from polymorphonuclear neutrophilic granulocytes (PMN membranes); host or cells: isolated membranes of polymorphonuclear neutrophilic granulocytes (PMN membranes)
T1 sequence (P21730 1-350): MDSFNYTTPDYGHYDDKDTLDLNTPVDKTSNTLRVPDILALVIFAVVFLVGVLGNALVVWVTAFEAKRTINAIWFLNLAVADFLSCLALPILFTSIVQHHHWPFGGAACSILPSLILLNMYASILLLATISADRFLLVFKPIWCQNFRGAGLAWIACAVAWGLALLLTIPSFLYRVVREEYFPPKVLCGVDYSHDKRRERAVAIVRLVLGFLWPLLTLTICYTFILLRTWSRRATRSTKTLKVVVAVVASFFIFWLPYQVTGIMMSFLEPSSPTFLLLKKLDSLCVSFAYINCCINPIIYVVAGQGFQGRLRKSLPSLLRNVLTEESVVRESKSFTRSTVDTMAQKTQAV
The conditions noted are these: PMN membranes, cited from earlier work.

Assay [2] has as its target T1, C5aR. As to the kind of experiment: Prior-art antagonistic activity (WO 03/033528). The conditions noted are these: WO 03/033528 values. An excerpt: In WO 03/033528 single substitutions of various amino acids in the molecule Ac-Phe[Orn-Pro-cha-Trp-Arg](compound 1) [SEQ ID NO: 6] are reported. A decrease of the affinity to the C5aR and a decrease in antagonistic potency is described for the substitution of the Arg with homoarginine (compound 44), citrulline (compound 45), lysine ([…]), or canavanine (compound 47). […] No IC50 value is reported for canavanine. […] Apart from the effects of charged arginine substitutions (homoarginine and lysine), in particular the strong decrease in binding strength upon exchange of the charged arginine (0.45 μM) by the uncharged citrulline (6 μM) is remarkable. The antagonistic activity is reduced even more (Arg: 0.028 μM, Cit: 0.690 μM). […] This also reflects that the size of the side chain itself is not sufficient as a criterium for predicting the activity. WO 03/033528 sets forth that the arginine (1) substitution to citrulline (45) results in a compound with allegedly remarkable antagonistic properties (p. 44, line 28ff). However, the cut off rate for what is remarkable, is chosen arbitrarily and the significant 24-fold drop in activity underlines the in the prior art well known importance of the C-terminal arginine in the peptidic C5aR antagonists. […]

In assay [3] the test system is BALB/c mice. Nature of the assay: Model of immune complex mediated peritonitis (reverse passive Arthus reaction). The conditions noted are these: 1 mg/kg i.v. 15 min before Arthus reaction, lavage after 6 h, FIG. 1. It is filed as in vivo. Here is the method:
Immune complex mediated peritonitis is part of the pathological conditions of immune complex related diseases such as vasculitis, nephritis, arthritis, and farmer's disease. The corresponding animal model was described by Heller et al. (1999 Journal of Immunology 163: 985-994) and takes advantage of the pro-inflammatory effect of immune complexes formation from i.v. administration of the antigen and i.p. administration of the antibody.
BALB/c mice (6-8 weeks old) were treated i.v. with the compound 149 (1 mg/kg body weight in 200 μl vehicle) which is one in accordance with the present invention, 15 min before the initiation of the reverse passive Arthus reaction. Arthus reaction was induced by the administration of OVA (20 mg/kg i.v. in 200 μl PBS) and polyclonal anti-OVA Ab (rabbit; 800 μg/Maus i.p). After 6 h a peritoenal lavage with 2 ml PBS 0.1% BSA was done. The collected PE-cells were stained with DIFF-Quick. At least 20 visual fields (100× magnification) were analysed for the presence of neutrophils.

The test system of assay [4] is Female Wistar rats. As to the kind of experiment: Model of C5a induced neutropenia. It is filed as in vivo. The conditions noted are these: i.v. infusion 10 min before 2 μg/kg hrC5a i.v., FIG. 2. An excerpt:
C5a induced neutropenia is a model for shock induced diseases (e.g. septic shock), where the systemic role of C5a such as neutropenia, blood pressure decrease, plays an important role. The reason for the decrease of the neutrophils in the circulation is their C5a triggered binding to the vessel walls. This process of neutrophil recruitment is also playing an important role in many other diseases like reperfusion injury. This model was also described by Short et al. (1999 British Journal of Pharmacology 125: 551-554).
Female Wistar rats were anaesthetized i.p. with ketamine (80 mg/kg) and xylazine (12 mg/kg). A catheter was introduced into the jugular veine and the animals were subjected to the following procedure: • 1. Rats were pre-treated with vehicle or compound 149 which is a compound according to the invention, via i.v. infusion. A blood sample was taken one minute prior to that. • 2. 10 min after compound infusion the rats were treated with 2 μg/kg hrC5a i.v. (2 μg/kg over 1 min)
Blood samples are taken shortly before and at various times after hrC5a administration. • 3. […]
White blood cell count was measured with a haematology-cell-counter. […]
The differential cell count is determined as the sum of neutrophils, eosinophils, basophils, lymphocytes and monocytes of 100 cells. Then the percentage of the neutrophils in relation to all white blood cells is calculated.

Assay [5] concerns the target T2, human C5aR (CD88) (Homo sapiens, UniProt P21730).
T2 construct: expressed in transfected cells; host or cells: rat basophilic leukemia cells (RBL)
T2 sequence (P21730 1-350): T1 sequence (P21730 1-350)
Nature of the assay: Determination of EC50 values in an enzyme release assay (agonistic activity, no C5a added). It is filed as cell-based. The conditions noted are these: cellular assay, up to a concentration of at least 1430 nM. The procedure: The determination of the EC50 value was performed in a way similar to the procedure described in example 11, with the only exception that 30 μl of the compound to be tested were mixed with 75 μl of the cell suspension described in example 11. There was no preincubation or addition of C5a for stimulation of the enzyme release.

Assay [6] addresses T2, human C5aR (CD88). As to the kind of experiment: Determination of the IC50 value in an enzyme release assay (functional assay, antagonistic activity). It is filed as cell-based.
In assay [7] the target is T3, C5a receptor (Homo sapiens, UniProt P21730).
T3 sequence (P21730 1-350): T1 sequence (P21730 1-350)
The conditions noted are these: read-out: IC50 as a measure for affinity (WO 03/033528); cited from earlier work.

Assay [8] relates to human PMNs. To be noted: myeloperoxidase release, read-out: IC50 antagonistic activity (WO 99/00406); cited from earlier work.
Assay [9] has as its target T4, human C5aR (CD88) (human, UniProt P21730 1-350).
T4 sequence (looked up): T1 sequence (P21730 1-350)
As to the kind of experiment: cell-based or functional assay.

The target of assay [10] is T4, human C5aR (CD88). As to the kind of experiment: cell-based or functional assay. The source holds these as a separate data set.
Setting [11] is: read-out: IC50 for the binding (WO 90/09162).
Where [12] appears, read: read-out: IC50 binding to C5aR (WO 92/12168).

As to `CC(=O)N[C@@H](Cc1ccccc1)C(=O)N[C@@H](CCCCN)C(=O)N[C@@H](C)C(=O)N[C@@H](CC1CCCCC1)C(=O)N[C@@H](C)C(=O)N[C@@H](CC(C)C)C(=O)N[C@H](C)C(=O)N[C@@H](Cc1ccc(O)cc1)C(=O)O` [Ac-Phe-Lys-Ala-Cha-Ala-Leu-ala-Tyr-OH] (Ac-FKA[Cha]AL[dA]Y-OH), the IC50 in assay [1] (setting [11]) was 170 nM.

As for `CC(=O)N[C@@H](Cc1ccccc1)C(=O)N[C@H]1CCCNC(=O)[C@H](CCCNC(N)=O)NC(=O)[C@H](Cc2c[nH]c3ccccc23)NC(=O)[C@@H](CC2CCCCC2)NC(=O)[C@@H]2CCCN2C1=O` [Compound 10, Ac-Phe-[Orn-Pro-cha-Trp-Cit]], the “drop in activity on substitution of arginine by citrulline” value in assay [2] is listed as 24 fold.

On to `CC(=O)N[C@@H](Cc1ccccc1)C(=O)N[C@@H](CCCN)C(=O)N1CCC[C@H]1C(=O)N[C@H](CCC(C)C)C(=O)N[C@@H](Cc1csc2ccccc12)C(=O)N[C@@H](Cc1ccccc1)C(N)=O` [Compound 149, Ac-Phe-Orn-Pro-hle-Bta-Phe-NH2] (Ac-F[Orn]P[d(hLeu)][Bta]F-NH2), for which the “influx of pro-inflammatory cells (neutrophils) into the peritoneum” value in [3] is listed as “reduction of the influx of pro-inflammatory cells into the peritoneum”. Further, the C5a-induced neutropenia entry in assay [4] was “reduces significantly C5a-induced neutropenia”. Besides, in assay [5], the “agonistic activity (in words)” value is given as “pure antagonists”. Moreover, the “inhibitory activity (in words)” value in assay [6] is recorded as “noteworthy inhibitory activity”.

For the molecule “(N-Ethyl)Phe-Lys-Ala-Cha-Ala-Leu-N-Methyl(D)ala-Arg-OH ([NEtPhe]KA[Cha]AL[dNMeA]R-OH; N-terminus assumed; SMILES CCN[C@@H](Cc1ccccc1)C(=O)N[C@@H](CCCCN)C(=O)N[C@@H](C)C(=O)N[C@@H](CC1CCCCC1)C(=O)N[C@@H](C)C(=O)N[C@@H](CC(C)C)C(=O)N(C)[C@H](C)C(=O)N[C@@H](CCCNC(=N)N)C(=O)O)”, the IC50 in assay [1] (setting [11]) was 11 nM.

Turning to “(N-Methyl)Phe-Lys-Pro-cha-Phe-Phenylbutanoyl ([NMeF]KP[dCha]F-Phenylbutanoyl)”, the IC50 in [1] (setting [12]) is 2600 nM.

With “(N-Methyl)Phe-Lys-Pro-cha-ψ{CH2- N(CH2CH2C6H5)}-Arg-OH”, in assay [1] (setting [12]), the IC50 was 360 nM.

“Ac-Phe-Lys-Ala-Cha-Ala-Leu-N-Methyl(D)ala-Arg-OH (Ac-FKA[Cha]AL[dNMeA]R-OH; SMILES CC(=O)N[C@@H](Cc1ccccc1)C(=O)N[C@@H](CCCCN)C(=O)N[C@@H](C)C(=O)N[C@@H](CC1CCCCC1)C(=O)N[C@@H](C)C(=O)N[C@@H](CC(C)C)C(=O)N(C)[C@H](C)C(=O)N[C@@H](CCCNC(=N)N)C(=O)O)”: in assay [1] (setting [11]), the IC50 is 12 nM.

“Ac-Phe[Orn-Pro-cha-Trp-Arg] with the Arg substituted with homoarginine (WO 03/033528) [WO 03/033528 compound 44]”: the IC50 in assay [7] was 1360 nM.

Take “Ac-Phe[Orn-Pro-cha-Trp-Arg] with the Arg substituted with lysine (WO 03/033528); number 47 also printed for canavanine [WO 03/033528 compound 47]”: in assay [7], the IC50 is 24000 nM.

Turning to “Me-Phe-Lys-Pro-cha-Trp-arg (FKPXWX; N-methyl, D-cha, D-Arg; oligopeptide with antagonistic activity at the C5a receptor)”, the IC50 in assay [8] is 85 nM.

For the molecule FXPXWX (not fully specified; Ac-; Orn2; cha4 (D); Cit6; cyclic [2-6]) [Ac-Phe-[Orn-Pro-cha-Trp-Cit]], in assay [9], the “IC50 activity group, enzyme release assay” value is at most 2000 nM. Further, the “IC50 activity group, enzyme release assay (Example 30)” value in assay [10] is at most 2000 nM.
